This experiment has as its system plasma aldosterone and corticosterone levels. The experiment is described as follows: Suppression of plasma aldosterone and corticosterone levels in ACTH-stimulated rats. The experiment is classed as in vivo, Wistar rats. Conditions: rat plasma, 4 mg/kg p.o., 2 h after dosing vs 1 h before dosing. Here is the method:
The aldosterone- and corticosterone-suppressing activity of herein described compounds may be assessed with the following in vivo protocol.
Adult male Wistar rats weighing between 250 and 350 grams are kept under the usual 12 hour light and 12 hour dark conditions at a temperature of 23° C.±2° C. On the first day of the experiment, the animals receive a subcutaneous injection of a depot ACTH product in a dose of 1.0 mg/kg weight (SYNACTHEN-Depot, Novartis, Basel, CH) 16 hours prior to the administration of a test compound. […] An alternative method to stimulate aldosterone secretion consists in subjecting rats to a low salt diet for 48 hours and applying the diuretic furosemide at 10 mg/kg by subcutaneous or intraperitoneal administration 16 hours, respectively 2 hours prior to the start of the experiment. On the second day of the experiment, the animals are divided into test groups of 5 animals and subjected to a first bleed 1 hour prior to the administration of test compound. Subsequently, and 16 hours after the injection of the ACTH product, the animals receive either vehicle or test compound dissolved in vehicle in a variable dose range from 0.02 to 20 mg/kg by oral gavage. The animals are bled two more times from the vena subclavia under isoflurane anaesthesia 2 and 6 hours after dosing. The blood is collected in heparin-treated tubes. The plasma samples are obtained by centrifugation and stored at −20° C. An alternative method to bleed animals time-dependently consists in using animals that are chronically carotid catheterized which allows the periodical sampling of up to 0.2 ml of blood using an AccuSampler (DiLab Europe, Lund, Sweden). The blood sampling with the AccuSampler may occur 1 hour prior to the administration of a test compound and 2, 4, 6, 8, 12, 16 and 24 hours thereafter. The blood samples are anticoagulated with heparin and centrifuged. The aldosterone and corticosterone concentrations of the plasma samples can be determined with a radioimmunoassay as described above for the in vitro test systems.
The selective suppression of plasma steroid levels as for instance aldosterone in comparison to corticosterone may serve as a measure for in vivo bioavailability and pharmacodynamic enzyme inhibitory activity of the herein described compounds. The evaluation of the data may occur relative to the application of vehicle or quantitatively by determination of the area under the curve (AUC).

Take `Fc1ccc(C2COCc3cncn32)cc1` (stereo not shown) [Example 14, 5-(4-Fluorophenyl)-5,6-dihydro-8H-imidazo[5,1-c][1,4]oxazine]: the “Aldosterone levels (% change at 2 h)” value was −58 % change and the “Corticosterone levels (% change at 2 h)” value is reported as −7 % change.
For `CC(=O)c1ccc(C2COCc3cncn32)cc1` (stereo not shown) [Example 16] the same measures were −67 % change and −9 % change.

(Values after patent US8138176B2, “Imidazo compounds” (Novartis AG, priority 2006, dated 2012).)
